Experimental data as given in US20050148514A1, “Method and composition for treatment of angiogenesis” (priority 2003, published 2005).
Entries after “also recorded” stand apart in the source; their conditions may differ. Where no end group is shown, it is not given here.

Columns and labels:
Format in all cases: cell-based
ERK [1] = assay: VEGF-induced ERK phosphorylation in BAEC; details: data not shown
Experimental: VEGF is a strong activator of ERKs (Extracellular-signal-Regulated protein Kinases) 1 and 2 via VEGF receptor 2. In order to test the ability of the PCK3145 derivative in potentially antagonizing VEGF-mediated ERK phosphorylation, serum-starved quiescent endothelial cells (HUVEC) were incubated with vehicle (phosphate-buffered saline (PBS) pH 7.4) or PCK3145 derivative (300 μg/ml) for 24 h and then stimulated with VEGF, bFGF (basic Fibroblast Growth Factor) or S1P (sphingosine-1-phosphate). Cells were washed with PBS containing NaF/Na3VO4 and incubated in the same medium buffer for 1 h at 4° C. The cells were scraped from the culture dishes and the resulting lysates clarified by centrifugation. Western blotting and immunodetection using anti-phosphoERK and anti-ERK antibodies was then performed.
The total amount of ERK in each sample of cells was unaffected by the PCK3145 derivative (FIG. 4A). Although, PCK3145 derivative also seemed to stimulate ERK phosphorylation induced by S1P in HUVEC (FIG. 4A), that result was found not statistically significant.

MMP-9 = assay: Gelatin zymography of culture media of MatLyLu tumor cells; details: 50 ug/ml collagen type-I, 500 ug/ml and 1 mg/ml, 72 hrs, serum free
Experimental: Zymography. Zymography is a technique generally used to analyze the activity of matrix metalloproteinases (MMPs) in biological samples. It involves the electrophoretic separation of proteins under denaturing (Sodium Dodecyl Sulfate (SDS)) but non-reducing conditions through a polyacrylamide gel containing gelatin (for example, 10% gel containing 1 mg/ml gelatin for MMP-9 and MMP-2 assays). The resolved proteins are re-natured by exchanging SDS with a non-ionic detergent such as Triton X-100 and the gel is incubated in an incubation buffer for activation of MMP-2 and MMP-9 (for example at 37° C. for 18 hrs). The gel is stained with Coomassie blue and the MMP-2 and MMP-9 bands may be visualized as clear bands against a blue background (i.e., the MMPs degrade the gelatin and are visualized as clear bands; pro MMP-2 is 68 kDa and pro-MMP-9 is 92 kDa). These bands can be quantified using densitometry.
In the experiment presented in FIG. 1, 2.5×10^5 MatLyLu tumor cells (American Type Culture Collection No.: JHU-5)) were seeded in T-25 flasks containing RPMI with 10% fetal bovine serum (FBS). […]
The media were collected after 72 hours of exposure to the PCK3145 derivative and subjected to gelatin zymography. […] The band intensities were determined using the Image Quant software (version 5.0) from molecular Dynamics. […]

ERK [2] = assay: Intrinsic effect on ERK phosphorylation (western blot)
Experimental: (§1) In order to investigate the potential intracellular pathways triggered by the PCK3145 derivative, a gene-reporter assay using the SEAP (Secreted Alkaline Phosphatase) Mercury Profiling Kit (CLONTECH) was performed in glioma cells (U-87). This assay enables the monitoring of transcription factors that are triggered by a particular experimental condition by assaying the alkaline phosphatase activity in the extracellular media. […] The induction of the MAPK pathway by the PCK3145 derivative is further confirmed by the rapid and transient induction of ERK phosphorylation between 5-10 minutes (FIG. 8B) and is shown to be dose-dependent (FIG. 8C). Finally, the effects of the PCK3145 derivative were also compared to those of a scrambled peptide.

MAPK/JNK pathway (SRE) = assay: SEAP gene-reporter assay in U-87 glioma cells, SRE element; details: alkaline phosphatase activity in extracellular media
Experimental: as §1

[3] = tested on: constitutive secretion pathway; assay: SEAP gene-reporter assay in U-87 glioma cells, constitutively expressed SEAP
Experimental: as §1

Question: Which results are given for “EWQTDNCETCTCYET (cysteine pairing not given here)”?
Answer: ERK phosphorylation induced by VEGF (ERK [1]): inhibitory effect was confirmed; MMP-9 secreted in the cell culture media, zymography (MMP-9): dose-dependent reduction; dose dependence of induction of ERK phosphorylation (ERK [2]; dose-response): dose-dependent; time of rapid and transient induction of ERK phosphorylation (ERK [2]; time-course, no growth factor): 5 to 10 min; SEAP reporter, MAPK/JNK pathway (SRE) (MAPK/JNK pathway (SRE)): triggers significantly; also recorded: extremely strong; secretion of the constitutively expressed SEAP [3]: inhibited
